Laboratory results from PMC12596500, “Affinity-selected peptide ligands specifically bind i-motif DNA and modulate c-Myc gene expression” (Nucleic Acids Research, 2025).
Read-outs that look alike come from different tables or passages of the source. Peptide text beside a SMILES is read from it.

Experiments:
[1] = tested on: c-MycC52; conditions: 10 µM DNA; for TM c-MycC52, first (lower) transition / TM c-MycC52, second (higher) transition: 10 mM NaCaco pH 6.6, 10 molar eqv. peptide, mean ± SEM (n=4); for ΔTM c-MycC52, transition at lower temperatures / ΔTM c-MycC52, second transition at higher temperatures: 10 mM sodium cacodylate pH 6.6, 10 molar equivalents peptide vs DMSO, mean ± SEM (n = 4)
Procedure: (§1) Circular Dichroism (CD) melting experiments were performed in a Jasco J-1500 spectropolarimeter with 10 µM DNA samples in 10 mM sodium cacodylate buffer at pH 6.6 using a 1 mm path length quartz cuvette. […] The samples were kept at 5°C for 5 min before starting the melt, with a temperature increase of 1°C/min, a 0.5°C data interval, and a 60-s holding time at each target temperature. Four scans were accumulated data pitch of 0.5 nm, a scanning speed of 200 nm/min, 1 s response time, 2 nm bandwidth, and 200 mdeg sensitivity. Furthermore, two CD melting experiment repeats were performed recording C-rich c-Myc at 288 and 320 nm, G-rich c-Myc at 264 and 320 nm, and dsDNA at 253 and 320 nm with the settings as described for full spectrum measurements. Data were zero corrected to 320 nm and baseline drift. The melting temperature (TM) was concluded using the Boltzmann or biphasic fitting curve on the folded fraction data using GraphPad Prism version 10.1.2. Data were processed as mean ± SEM (n = 4) and one-way ANOVA followed by Bonferroni post-hoc test to determine significant changes between peptides and controls.

[2] = tested on: c-MycG52; conditions: 10 µM DNA; for TM c-MycG52: 10 mM NaCaco pH 6.6, 10 molar eqv. peptide, mean ± SEM (n=4); for ΔTM c-MycG52: 10 mM sodium cacodylate pH 6.6, 10 molar equivalents peptide vs DMSO, mean ± SEM (n = 4)
Procedure: as §1

[3] = tested on: c-MycG27; assay: CD melting of c-MycG27; assay type: binding; conditions: 10 µM DNA; for TM c-MycG27: 10 mM NaCaco pH 6.6, 10 molar eqv. peptide, mean ± SEM (n=4); for effect on c-MycG27 thermal stability, in words: pH 6.6, 10 molar equivalents peptide
Procedure: as §1

[4] = tested on: dsDNA (DS); assay: CD melting of double-stranded DNA; assay type: binding; conditions: for TM DS / ΔTM DS: 10 µM DNA, SEM; for TM DS / effect on dsDNA melting compared to the solvent controls, in words: 10 mM NaCaco pH 6.6, 10 molar eqv. peptide; for TM DS: mean ± SEM (n=4); for ΔTM DS: 10 mM sodium cacodylate pH 6.6, 10 molar equivalents peptide vs DMSO, mean ± SEM (n = 4); for effect on dsDNA melting compared to the solvent controls, in words: 10 µM DS
Procedure: as §1

[5] = target: c-MycC52; assay: UV titration, c-MycC52; assay type: binding; conditions: for Kd: average of three experiments ± SD, SD; for selectivity for c-MycC52 against the complementary G4 forming sequence: from UV titration Kd values
Procedure: (§2) UV titrations were recorded using an Agilent Cary-60 UV/VIS spectrometer with a 10 mm path length black-walled quartz cuvette. Oligonucleotides (c-MycC27, c-MycC52, c-MycG27, c-MycG52, DAPc, DAPg, and dsDNA; sequences listed in Supplementary Table S1) were annealed as 250 µM stock solutions in 10 mM sodium cacodylate buffer (pH 6.6) in the presence or absence of 100 mM KCl. Spectra were recorded at room temperature over a wavelength range of 300–500 nm with 1 nm intervals. Buffer-only spectra were recorded and subtracted from each dataset as blanks. Peptide ligands were prepared as 1 mM stock solutions in DMSO and added to the cuvette at a final concentration of 10 µM in buffer prior to DNA addition. DNA stock was diluted to 50 µM in buffer and was added stepwise to the peptide solution to reach 2.5 µM final concentration, followed by additions from the 250 µM DNA stock to reach final DNA concentrations of 30 or 50 µM. The absorbance at 350 nm was monitored and plotted against DNA concentration. Binding curves were fitted using a one-site binding model in GraphPad Prism version 10.1.2, and Kd values were determined from normalized data to represent the DNA-ligand bound fraction.
(§3) Despite the demonstrable importance of the extended five-tract C-rich sequence within the c-Myc promoter, most studies looking at ligand binding use the shorter sequences. […] Although the iM-targeting antibody is specific for iM as a structure, it also binds multiple types of iM-structures.

[6] = target: c-MycG52; assay: UV titration, c-MycG52; assay type: binding
Procedure: as §2, §3

[7] = target: DAPc; assay: UV titration, DAPc; assay type: binding; design: key to Kd DAPc, 100 mM KCl: Binding classified as non-specific (NS) showed no consistent or concentration-dependent pattern, under the tested conditions; key to Kd DAPc: NS = non-specific binding indicates where no significant pattern of binding was observed at the concentration range of the experiment; conditions: for Kd DAPc: UV titration at 350 nm, 10 µM peptide, 10 mM sodium cacodylate pH 6.6, no KCl; for Kd DAPc, 100 mM KCl: UV titration, 10 mM sodium cacodylate 100 mM potassium chloride pH 6.6, two experiments
Procedure: as §2, §3

[8] = target: dsDNA; assay: UV titration, dsDNA; assay type: binding; design: key to Kd dsDNA, 100 mM KCl: Binding classified as non-specific (NS) showed no consistent or concentration-dependent pattern, under the tested conditions; key to Kd dsDNA: NS = non-specific binding indicates where no significant pattern of binding was observed at the concentration range of the experiment; conditions: for Kd dsDNA: UV titration at 350 nm, 10 µM peptide, 10 mM sodium cacodylate pH 6.6, no KCl; for Kd dsDNA, 100 mM KCl: UV titration, 10 mM sodium cacodylate 100 mM potassium chloride pH 6.6, two experiments
Procedure: as §2, §3

[9] = tested on: human insulin promoter (ILPR) firefly luciferase reporter in HEK293 cells; assay: Dual-luciferase reporter assay, insulin promoter (ILPR); assay type: cell-based; conditions: HEK293, 4 h, 10 µM peptide with Nanocin Pro
[10] = UV titration at 350 nm, 10 µM peptide, 10 mM sodium cacodylate pH 6.6, no KCl, room temperature, read-out: Kd c-MycC52
[11] = read-out: Kd c-MycC52, 100 mM KCl, UV titration, 10 mM sodium cacodylate 100 mM potassium chloride pH 6.6
[12] = UV titration at 350 nm, 10 µM peptide, 10 mM sodium cacodylate pH 6.6, no KCl, binding did not plateau at the concentration range, read-out: Kd c-MycG52
[13] = read-out: Kd c-MycG52, 100 mM KCl, UV titration, 10 mM sodium cacodylate 100 mM potassium chloride pH 6.6, average of three experiments ± SD, SD

Compound | TM c-MycC52, first (lower) transition ([1]; SEM) | TM c-MycC52, second (higher) transition ([1]; SEM) | ΔTM c-MycC52, second transition at higher temperatures ([1]; SEM) | ΔTM c-MycC52, transition at lower temperatures ([1]; SEM) | TM c-MycG52 [2] | ΔTM c-MycG52 [2] | TM c-MycG27 ([3]; SEM) | effect on c-MycG27 thermal stability, in words [3] | TM DS [4] | ΔTM DS [4] | effect on dsDNA melting compared to the solvent controls, in words [4] | Kd [5, 10] | selectivity for c-MycC52 against the complementary G4 forming sequence [5] | Kd [5, 11] | Kd [6, 12] | Kd [6, 13] | Kd DAPc [7] | Kd DAPc, 100 mM KCl [7] | Kd dsDNA [8] | Kd dsDNA, 100 mM KCl [8] | further results
CC(=O)N1CCC[C@H]1C(=O)N[C@H](C(=O)N[C@@H](CC(N)=O)C(=O)N[C@H](C(=O)N[C@@H](CO)C(=O)NCC(=O)N[C@@H](CCCNC(=N)N)C(=O)N[C@@H](CC(N)=O)C(=O)N[C@@H](Cc1ccc(O)cc1)C(=O)N[C@@H](CC(C)C)C(=O)N[C@@H](Cc1ccccc1)C(=O)N[C@@H](CS)C(N)=O)C(C)C)[C@@H](C)O [Pep-PTN] (Ac-PTNVSGRNYLFC-NH2) | 32 ± 2.0 °C | 79 ± 0.8 °C | −2 ± 0.3 °C | −1 ± 0.5 °C | 45 ± 1.0 °C | +2 ± 0.3 °C | 50 ± 1.0 °C | neither stabilized nor destabilized | 52 ± 1.0 °C | 0 ± 0.6 °C | no effect on dsDNA melting | 930 ± 80 nM | about 50 fold | 1540 ± 30 nM | > 50000 nM | 45000 ± 4000 nM | NS | NS | NS | NS | ΔTM c-MycC52, transition at lower temperatures [1]: no significant change; decrease in TM of the more stable iM population of c-MycC52 ([1]; pH 6.6, 10 molar equivalents peptide, given as a decrease, without sign): 2 ± 0.3 °C; ΔTM c-MycG27 ([3]; 10 mM sodium cacodylate pH 6.6, 10 molar equivalents peptide vs DMSO, mean ± SEM (n = 4), SEM): −1 ± 0.5 °C; insulin promoter (ILPR) reporter response [9]: no significant change in response
CC(=O)N[C@H](C(=O)N[C@@H](CO)C(=O)N[C@@H](CCC(=O)O)C(=O)N[C@@H](C)C(=O)N[C@@H](Cc1c[nH]c2ccccc12)C(=O)N[C@@H](CCCCN)C(=O)N[C@@H](CCC(=O)O)C(=O)N[C@H](C(=O)N[C@@H](CCCCN)C(=O)NCC(=O)N[C@@H](Cc1ccccc1)C(=O)N[C@@H](Cc1ccccc1)C(N)=O)C(C)C)C(C)C [Pep-VSE] (Ac-VSEAWKEVKGFF-NH2) | 33 ± 0.9 °C | 74 ± 0.7 °C | −14 ± 0.5 °C | −3 ± 0.2 °C | 48 ± 1.0 °C | +4 ± 0.1 °C | 48 ± 1.0 °C | neither stabilized nor destabilized | 51 ± 0.8 °C | 0 ± 0.8 °C | no effect on dsDNA melting | 430 ± 30 nM | ~100 fold | 690 ± 60 nM | > 50000 nM | 35000 ± 3000 nM | NS | NS | NS | NS | insulin promoter (ILPR) reporter response [9]: no significant change in response
